Test results reported in patent US8399684B2, “Sulfonamide-based organocatalysts and method for their use” (State of Oregon acting by and through the State Board of …, priority 2007, dated 2013).
In brackets after ≈: the same amount, converted by molar mass.

Legend:
[1] = Solubility of catalysts screened in methylene chloride (dichloromethane); format: physicochemical
Source text: In order to explore the effects of solvent polarity, the solubility of certain catalysts in methylene chloride was screened. Disclosed catalysts typically have a solubility of at least 10 milligrams/milliliter in dichloromethane, and typically at least 50 milligrams/milliliter in dichloromethane.
The absence of a significant non-polar region to the molecule may be the origin of this poor solubility. […] Sulfonamides are ideal choices for proline mimetics as their pKa has been documented to nicely match that of proline.
Ester-based catalysts according to the present disclosure also have markedly better solubilities than previously known compounds.

[2] = Solubility of catalysts under the intramolecular Michael addition conditions; format: physicochemical; conditions: chlorinated reaction solvent, incl. lower temperatures; compared with tetrazole 11 and sulfonamides 12-14
Source text: Proline sulfonamides were tried next as potential organocatalysts. While these ligands have shown promise in certain organocatalyzed reactions, they previously have proven problematic in facilitating Michael addition processes. Proline sulfonamides performed well, providing improved enantiomeric excess (e.e.) at room temperature (Entries 6-8). […] This sulfonamide 15 is readily accessible from the commercially available para-dodecylsulfonylchloride (16) and Cbz-protected proline 18 in 3 steps (Scheme 16).

- solubility in dichloromethane [1]: 300 mg/mL (≈ 710 mM)
- solubility (in words) [2]: greatly improved solubility properties
Structure (SMILES): CCCCCCCCCCCCc1ccc(S(=O)(=O)NC(=O)C2CCCN2)cc1 (centres unmarked) [Sulfonamide 15, N-(p-dodecylphenylsulfonyl)-2-Pyrrolidinecarboxamide]
